Here are results for two compounds from patent US20080145903A1, “PROCESSES OF PRODUCING FERMENTATION PRODUCTS” (priority 2006, published 2008).

The test system of experiment [1] is RED STAR yeast. The experiment is described as follows: Conventional simultaneous saccharification fermentation (SSF) of liquefied corn mash, ethanol yield by weight loss and HPLC. It is filed as cell-based. The settings on record: weight loss method, all the enzymes tested, FIGS. 1, 2 and 3. The method, then: Liquefied corn mash was used to evaluate the effect of adding salicylic acid (SA) to a known enzyme dosage of
The performance of these enzymes was compared to controls without salicylic acid addition. The experimental set-up used is described in table below.
5.5 g of RED STAR™ yeast was rehydrated in 100 mL distilled water and incubated at 32° C. for 30 minutes prior to the beginning of fermentation. Approximately 50 million cells/g DS of yeast were added to each of the fermentations.
The corn mash was thawed to room temperature. Urea and Penicillin were added to a final concentration of […] and 3 mg/L respectively. Small-scale (˜4 g) fermentations were carried out in 15 mL polypropylene tubes with five replicates for each experimental condition. The tubes were prepared by drilling a 1/32 inch (1.5 mm) hole and the empty tubes were then weighed before liquefied corn mash was added. The tubes were weighed again after mash was added to determine the exact weight of mash in each tube. This weight was used to calculate the enzyme dosage necessary as follows:
Enzyme was added according to dosage described in table above and 100 μl of rehydrated yeast were added to each tube to begin fermentation. Fermentation progress was followed by weighing the tubes over time for approximately 70 hours. Tubes were vortexed briefly before each weighing. […]

For experiment [2], the system named is yeast. The experiment is described as follows: Yield boosting effect of salicylic acid on ethanol production from starch-containing material (conventional SSF), summary findings. It is filed as cell-based. From the text: Further, the effect on yeast growth is 2-fold.
Experiment [3] has as its system RED STAR yeast. The experiment is described as follows: Dose/response study of salicylic acid in conventional SSF. It counts as cell-based. The method, then: The experiment was carried out as described in Example 1, except that the following enzyme blends was used for all treatments: • 0.3 AGU Talaromyces emersonii glucoamylase/g DS; • 0.0025 mg Rhizomucor pusillus alpha-amylase/g DS; and • 0.0125 mg Trametes cingulata glucoamylase/g DS. All treatments and controls included 8 replicates. [table]

Experiment [4] concerns yeast. The experiment is described as follows: One-step fermentation of ground corn slurry with T. cingulata GA + R. pusillus AA blend, ethanol by HPLC. It is filed as cell-based. The settings on record: for Ethanol yield: one-step fermentation. The method, then:
All treatments were evaluated via mini-scale fermentations. 410 g of ground yellow dent corn (with an average particle size around 0.5 mm) was added to 590 g tap water. This mixture was supplemented with 3.0 mL 1 g/L penicillin and 1 g of urea. The pH of this slurry was adjusted to 4.5 with 40% H2SO4. Dry solid (DS) level was determined to be 35 wt. %. Approximately 5 g of this slurry was added to 20 mL vials. Each vial was dosed with the appropriate amount of enzyme dosage shown in Table 2 below followed by addition of 200 microL yeast propagate/5 g slurry. Actual enzyme dosages were based on the exact weight of corn slurry in each vial. Vials were incubated at 32° C. Nine replicate fermentations of each treatment were run. Three replicates were selected for 24 hours, 48 hours and 70 hours time point analysis. Vials were vortexed at 24, 48 and 70 hours and analyzed by HPLC. The HPLC preparation consisted of stopping the reaction by addition of 50 microL of 40% H2SO4, centrifuging, and filtering through a 0.45 micrometer filter. Samples were stored at 4 C until analysis. Agilent™ 1100 HPLC system coupled with RI detector was used to determine ethanol and oligosaccharides concentration. The separation column was aminex HPX-87H ion exclusion column (300 mm×7.8 mm) from BioRad™).
The experiment was carried out as described in Example 2, except that salicylic acid (SA) was replaced with acetyl salicylic acid (ASA). The treatment and enzyme dosing was described in table below.

Experiment [5] deals with Pichia stipitis (CBS6054). The settings on record: salicylic acid 5 mM, 30° C., pH 6, FIG. 9.

Take `O=C(O)c1ccccc1O` [SA, salicylic acid]: the “Fermentation kinetic and final ethanol yield” value in the experiment on RED STAR yeast [1] was “increases the fermentation kinetic and also final ethanol yield”. For the same compound, in the experiment with yeast [2] (at high salicylic acid concentrations), the Residual glucose entry is recorded as “increased”. Moreover, the “Effect on yeast growth” value in the experiment on yeast [2] (at higher concentrations) is given as “reduce yeast growth”. In addition, the “Effect on cell growth” value in the experiment with yeast [2] (at lower concentration) is listed as “positive effect on cell growth”. Besides, the Effective concentration range lay within 1.25 to 2.5 mM in the experiment with yeast [2] (by HPLC) and 0.63 to 2.5 mM in the experiment on yeast [2] (by weight loss determination). In addition, the figures for the Maximum ethanol increase with yeast [2] (by HPLC) and in the experiment on yeast [2] (by weight loss determination) were 1.3% and 3.5%, respectively. For the same compound, the Glycerol production result in the experiment on yeast [2] (with increasing salicylic acid concentration) was “decreased dramatically”. Also, the “Glycerol after 70 hours of fermentation” value in the experiment with RED STAR yeast [3] (HPLC, as a function of SA dose, FIG. 8) is on record as “consistently reduced the amount of the by-product glycerol”. In addition, the “Fermentation kinetics and final ethanol yield” value in the experiment on RED STAR yeast [3] (weight loss data, FIG. 6) is “increased the fermentation kinetics and final ethanol yield”. The Ethanol yield worked out at 107.77 in the experiment on yeast [4] (SA 1 mM (mM/g DS), 24 hours); 144.61 with yeast [4] (SA 1 mM (mM/g DS), 48 hours); 151.80 in the experiment on yeast [4] (SA 1 mM (mM/g DS), 70 hours); 107.53 with yeast [4] (SA 2.5 mM (mM/g DS), 24 hours); 143.11 in the experiment with yeast [4] (SA 2.5 mM (mM/g DS), 48 hours); 150.80 in the experiment with yeast [4] (SA 2.5 mM (mM/g DS), 70 hours). For the same compound, the Ethanol yield turned out to be 104.46 with yeast [4] (SA 5 mM (mM/g DS), 24 hours); 137.21 in the experiment on yeast [4] (SA 5 mM (mM/g DS), 48 hours); 146.07 in the experiment on yeast [4] (SA 5 mM (mM/g DS), 70 hours); 75.03 with yeast [4] (SA 15 mM (mM/g DS), 24 hours); 117.40 in the experiment on yeast [4] (SA 15 mM (mM/g DS), 48 hours); 126.40 with yeast [4] (SA 15 mM (mM/g DS), 70 hours). Also, the “Fermentation speed and final ethanol yield” value in the experiment with yeast [4] (Trametes cingulata GA and Rhizomucor pusillus AA blend, FIG. 4) was “increases the fermentation speed and final ethanol yield”. The “Ability of P. stipitis to tolerate the inhibitors in the unwashed biomass hydrolyzate” value in experiment [5] is given as “improves the ability of P. stipitis to tolerate the inhibitors”.
On to `CC(=O)Oc1ccccc1C(=O)O` [ASA, acetyl salicylic acid, reference compound], for which the Ethanol yield in the experiment with yeast [4] (ASA 1 mM (mM/g DS), 24 hours) was found to be 108.19; in the experiment on yeast [4] (ASA 1 mM (mM/g DS), 48 hours), 153.37; in the experiment with yeast [4] (ASA 1 mM (mM/g DS), 70 hours) it was 160.39. For the same compound, in the experiment on yeast [4] (ASA 1.0 mM/g DS, FIG. 5), the “Fermentation kinetic and final ethanol yield” value is “gave an increase in fermentation kinetic and also final ethanol yield”.
